Source: patent publication US20210077420A1, “Methods of Treatment of Gout” (priority 2017, published 2021)
One block for each compound: values may come before it.

Assays:
Assay type in all cases: physicochemical
[1] = Solubility enhancement of MSU crystals in aqueous NaCl solution (Example 1); conditions: 16 h; for % vs control: 2.5 mL enhancer + 2.5 mL NaCl solution, control (water only) = 100%; for Concentration of urate: 2.5 mL enhancer + 2.5 mL NaCl solution (8.2 g/L), about 8 mg MSU, 25 °C, mixes equal portions by volume, control 0.043
Protocol: A NaCl solution was prepared by dissolving 8.2 g of NaCl in 1 L of deionised water. Approximately 8 mg of monosodium urate crystals was then suspended in 2.5 mL of the NaCl solution. A 2.5 mL amount of a solubility enhancer was then added to the suspension of monosodium urate crystals. In the case of the solubility enhancer being a mix of components, equal portions by volume of each component was added. This was then mixed for about 16 hours on a roller mixer.
A sample of the supernatant was then taken, filtered using standard techniques (e.g. a syringe filter), and analysed by high-performance liquid chromatography (HPLC) to determine the concentration uric acid/MSU present in solution.
All samples were analysed using a HPLC system equipped with a variable wavelength UV detector and a reversed phase column (5 μm ODS2, 4.6 mm×150 mm, Waters Spherisorb). The mobile phase was 35 mM sodium acetate in water with pH adjusted to 5.0 using acetic acid. The flow rate was set at 1 mL/min and UV detection at a wavelength of 292 nm. Sample injection volume was 50.0 μL and all operations were carried out at 25° C. Standard solutions of MSU were made up in the range of 15-250 μg/mL and analysed as above.

[2] = Solubility enhancement of MSU crystals in phosphate buffered saline (Examples 2A, 2B)
Protocol: A phosphate buffered saline diluent was prepared by dissolving 8.2 g of NaCl and 0.68 g of KH2PO4 in 500 mL of deionised water in a 1 L flask. An NaOH solution was prepared by dissolving 0.399 g of NaOH in 100 mL of deionised water. 39.1 mL of the 0.1 M NaOH solution was then added to the 1 L flask and the volume was made up to 1 L with deionised water. The pH was adjusted to 7.4.
Approximately 5 mg of monosodium urate crystals was then suspended in 4.75 mL of the phosphate buffered saline diluent. A 0.25 mL amount of a solubility enhancer was then added to the suspension of monosodium urate crystals. […] In the case of the solubility enhancer being a mix of components, equal portions by volume of each component was added, unless indicated otherwise. This was then stirred for about 16 hours.
A sample of the supernatant was then taken, filtered using standard techniques (e.g. a syringe filter), and analysed by high-performance liquid chromatography (HPLC) to determine the concentration of uric acid/urate present in solution.

[3] = as above; conditions: Table 3
[4] = Table 2, 5% by volume solubility enhancer in PBS pH 7.4, control = 100%
[5] = Table 3, 5% by volume solubility enhancer in PBS
[6] = 0.1% solubility enhancer in PBS

- % vs control [1]: 200%
Compound: CN1CCCC1=O [N-methylpyrrolidone]

- % vs control [2, 4]: 119%
Compound: CCCCCCCC/C=C\CCCCCCCC(=O)OC [Methyl oleate]

- % vs control [2, 4]: 114%
- % vs control [1]: 114%
Compound: CC(O)CO (centres unmarked) [Propylene glycol]

Compound: O=C(O)c1ccccc1 [Benzoic acid]
- % vs control [2, 5]: 189%
- % vs control [3, 6]: 147%
- % vs control ([3]; 1% solubility enhancer in PBS): 159%

- % vs control [2, 4]: 165%
- % vs control [2, 5]: 113%
- % vs control ([3]; 4% solubility enhancer in PBS): 111%
Compound: CC(=O)OCC(COC(C)=O)OC(C)=O [Triacetin]

- % vs control [1]: 151%
Compound: O=C(O)/C=C/C(=O)O [Fumaric acid]

- % vs control [2, 5]: 190%
- % vs control ([3]; 1% solubility enhancer in PBS): 151%
Compound: OCc1ccc(O)cc1 [4-hydroxybenzyl alcohol]

- % vs control [3, 6]: 281%
Compound: O=C(O)c1ccccc1O [Salicylic acid]

- % vs control ([3]; 1% solubility enhancer in PBS): 118%
- % vs control ([3]; 2% solubility enhancer in PBS): 119%
Compound: CCCCCCCC/C=C\CCCCCCCC(=O)O [Oleic acid]

- % vs control [2, 4]: 263%
- % vs control ([3]; 0.5% solubility enhancer in PBS): 152%
- % vs control ([3]; 2% solubility enhancer in PBS): 170%
- % vs control ([3]; 3% solubility enhancer in PBS): 197%
- % vs control ([3]; 4% solubility enhancer in PBS): 227%
Compound: OCc1ccccc1 [Benzyl alcohol]

- % vs control [1]: 209%
Compound: CC(=O)OC/C=C(\C)CCC=C(C)C [Geranyl acetate]

- % vs control [2, 4]: 114%
- % vs control [1]: 149%
Compound: OCC(O)CO [Glycerol]

- Concentration of urate [1]: 57 µg/mL
Compound: Span 85

- % vs control [2, 5]: 241%
- % vs control ([3]; 0.05% solubility enhancer in PBS): 160%
- % vs control [3, 6]: 193%
- % vs control ([3]; 1% solubility enhancer in PBS): 205%
Compound: O=C(O)c1ccc(O)cc1 [4-hydroxybenzoic acid]

Compound: OCCO [Ethylene glycol]
- % vs control [2, 4]: 112%

- Concentration of urate [1]: 65 µg/mL
- % vs control [1]: 151%
Compound: Sorbitan monooleate
